Experimental data taken from patent US7538103B2, “Compounds for the treatment of hepatitis C” (Bristol-Myers Squibb Company, priority 2007, dated 2009).
Read-outs that look alike come from different tables or passages of the source.

Experiments:
HCV NS5B = biological target: T1, HCV NS5B (Hepatitis C virus genotype 1b, UniProt Q9WMX2); experiment: Modified HCV NS5B RdRp enzyme assay (preincubation protocol); assay type: biochemical
T1 construct: The protein was expressed with an 18 amino acid C-terminal truncation to enhance the solubility; made in house; host or cells: E. coli BL21(DE3)
T1 sequence (Q9WMX2 2420-2992): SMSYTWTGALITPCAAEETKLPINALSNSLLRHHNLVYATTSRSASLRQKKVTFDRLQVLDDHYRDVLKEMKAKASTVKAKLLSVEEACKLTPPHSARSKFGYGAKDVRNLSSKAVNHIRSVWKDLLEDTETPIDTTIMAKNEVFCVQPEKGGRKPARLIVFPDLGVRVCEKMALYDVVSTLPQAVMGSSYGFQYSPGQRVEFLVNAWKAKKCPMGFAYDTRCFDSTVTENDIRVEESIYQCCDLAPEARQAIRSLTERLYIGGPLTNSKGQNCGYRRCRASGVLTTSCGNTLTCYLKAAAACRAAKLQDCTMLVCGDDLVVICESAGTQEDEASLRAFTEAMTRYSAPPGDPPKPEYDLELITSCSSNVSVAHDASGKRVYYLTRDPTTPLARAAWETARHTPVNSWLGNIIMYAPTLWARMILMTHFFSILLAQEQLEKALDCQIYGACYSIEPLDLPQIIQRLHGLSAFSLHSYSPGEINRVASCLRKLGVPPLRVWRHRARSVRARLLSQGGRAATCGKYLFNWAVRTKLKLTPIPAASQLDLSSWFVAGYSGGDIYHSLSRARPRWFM
Method: HCV NS5B RdRp cloning, expression, and purification. The cDNA encoding the NS5B protein of HCV, genotype 1b, was cloned into the pET21a expression vector. The protein was expressed with an 18 amino acid C-terminal truncation to enhance the solubility. The E. coli competent cell line BL21(DE3) was used for expression of the protein. Cultures were grown at 37° C. for ˜4 hours until the cultures reached an optical density of 2.0 at 600 nm. The cultures were cooled to 20° C. and induced with 1 mM IPTG. Fresh ampicillin was added to a final concentration of 50 μg/ml and the cells were grown overnight at 20° C.
Cell pellets (3 L) were lysed for purification to yield 15-24 mgs of purified NS5B. The lysis buffer consisted of 20 mM Tris-HCl, pH 7.4, 500 mM NaCl, 0.5% triton X-100, 1 mM DTT, 1 mM EDTA, 20% glycerol, 0.5 mg/ml lysozyme, 10 mM MgCl2, 15 ug/ml deoxyribonuclease I, and Complete TM protease inhibitor tablets (Roche). After addition of the lysis buffer, frozen cell pellets were resuspended using a tissue homogenizer. To reduce the viscosity of the sample, aliquots of the lysate were sonicated on ice using a microtip attached to a Branson sonicator. The sonicated lysate was centrifuged at 100,000×g for 1 hr at 4° C. and filtered through a 0.2 μm filter unit (Corning).
The protein was purified using three sequential chromatography steps: Heparin sepharose CL-6B, polyU sepharose 4B, and Hitrap SP sepharose (Pharmacia). The chromatography buffers were identical to the lysis buffer but contained no lysozyme, deoxyribonuclease I, MgCl2 or protease inhibitor and the NaCl concentration of the buffer was adjusted according to the requirements for charging the protein onto the column. Each column was eluted with a NaCl gradient which varied in length from 5-50 column volumes depending on the column type. After the final chromatography step, the resulting purity of the enzyme is >90% based on SDS-PAGE analysis. The enzyme was aliquoted and stored at −80° C.
Standard HCV NS5B RdRp enzyme assay. HCV RdRp genotype 1b assays were run in a final volume of 60 μl in 96 well plates (Costar 3912). The assay buffer is composed of 20 mM Hepes, pH 7.5, 2.5 mM KCl, 2.5 mM MgCl2, 1 mM DTT, 1.6 U RNAse inhibitor (Promega N2515), 0.1 mg/ml BSA (Promega R3961), and 2% glycerol. All compounds were serially diluted (3-fold) in DMSO and diluted further in water such that the final concentration of DMSO in the assay was 2%. HCV RdRp genotype 1b enzyme was used at a final concentration of 28 nM. A polyA template was used at 6 nM, and a biotinylated oligo-dT12 primer was used at 180 nM final concentration. Template was obtained commercially (Amersham 27-4110). Biotinylated primer was prepared by Sigma Genosys. 3H-UTP was used at 0.6 μCi (0.29 μM total UTP). Reactions were initiated by the addition of enzyme, incubated at 30° C. for 60 min, and stopped by adding 25 μl of 50 mM EDTA containing SPA beads (4 μg/μl, Amersham RPNQ 0007). Plates were read on a Packard Top Count NXT after >1 hr incubation at room temperature.
Modified HCV NS5B RdRp enzyme assay. A modified enzyme assay was performed essentially as described for the standard enzyme assay except for the following: The biotinylated oligo dT12 primer was precaptured on streptavidin-coated SPA beads by mixing primer and beads in assay buffer and incubating at room temperature for one hour. Unbound primer was removed after centrifugation. The primer-bound beads were resuspended in 20 mM Hepes buffer, pH 7.5 and used in the assay at final concentrations of 20 nM primer and 0.67 μg/μl beads. Order of addition in the assay: enzyme (14 nM) was added to diluted compound followed by the addition of a mixture of template (0.2 nM), 3H-UTP (0.6 μCi, 0.29 μM), and primer-bound beads, to initiate the reaction; concentrations given are final. Reactions were allowed to proceed for 4 hours at 30° C.
IC50 values for compounds were determined using seven different [I]. […]

HCV replicon cells = experiment: HCV replicon FRET assay; assay type: cell-based; conditions: Hepatitis C virus
Excerpt: FRET Assay Preparation. To perform the HCV FRET screening assay, 96-well cell culture plates were used. The FRET peptide (Anaspec, Inc.) (Taliani et al., Anal. Biochem. 1996, 240, 60-67) contains a fluorescence donor, EDANS, near one end of the peptide and an acceptor, DABCYL, near the other end. The fluorescence of the peptide is quenched by […] resonance energy transfer (RET) between the donor and the acceptor, but as the NS3 protease cleaves the peptide the products are released from RET quenching and the fluorescence of the donor becomes apparent. The assay reagent was made as follows: 5X cell Luciferase cell culture lysis reagent from Promega (#E153A) diluted to 1× with dH2O, NaCl added to 150 mM final, the FRET peptide diluted to 20 μM final from a 2 mM stock.
To prepare plates, HCV replicon cells, with or without a Renilla luciferase reporter gene, were trypsinized and placed into each well of a 96-well plate with titrated test compounds added in columns 3 through 12; columns 1 and 2 contained a control compound (HCV protease inhibitor), and the bottom row contained cells without compound. The plates were then placed in a CO2 incubator at 37° C.
Assays. Subsequent to addition of the test compounds described above (FRET Assay Preparation), at various times the plate was removed and Alamar blue solution (Trek Diagnostics, #00-100) was added per well as a measure of cellular toxicity. After reading in a Cytoflour 4000 instrument (PE Biosystems), plates were rinsed with PBS and then used for FRET assay by the addition of 30 ul of the FRET peptide assay reagent described above (FRET Assay Preparation) per well. The plate was then placed into the Cytoflour 4000 instrument which had been set to 340 excite/490 emission, automatic mode for 20 cycles and the plate read in a kinetic mode. Typically, the signal to noise using an endpoint analysis after the reads was at least three-fold. Alternatively, after Alamar blue reading, plates were rinsed with PBS, 50 ul of DMEM (high glucose) without phenol red was added and plates were then used for luciferase assay using the Promega Dual-Glo Luciferase Assay System.
Compound analysis was determined by quantification of the relative HCV replicon inhibition and the relative cytotoxicity values. To calculate cytoxicity values, the average Alamar Blue fluorescence signals from the control wells were set as 100% non-toxic. The individual signals in each of the compound test wells were then divided by the average control signal and multiplied by 100% to determine […]. To calculate the HCV replicon inhibition values, an average background value was obtained from the two wells containing the highest amount of HCV protease inhibitor at the end of the assay period. These numbers were similar to those obtained from naïve Huh-7 cells.
The background numbers were then subtracted from the average signal obtained from the control wells and this number was used as 100% activity. The individual signals in each of the compound test wells were then divided by the averaged control values after background subtraction and multiplied by 100% to determine percent activity. EC50 values for a protease inhibitor titration were calculated as the concentration which caused a 50% reduction in FRET or luciferase activity. The two numbers generated for the compound plate, percent cytoxicity and percent activity were used to determine compounds of interest for further analysis.

[1] = determined using the preincubation protocol, read-out: IC50
[2] = determined using the FRET assay, read-out: EC50

Structure (SMILES)	IC50 (HCV NS5B; [1])	EC50 (HCV replicon cells; [2])	IC50 (HCV NS5B)	EC50 (HCV replicon cells)
COc1ccc2c(c1)C1CC1(CO)Cn1c-2c(C2CCCCC2)c2ccc(C(=O)NS(=O)(=O)N(C)C)cc21 (centres unmarked)	1 to 500 nM	1 to 500 nM		
COc1ccc2c(c1)C1CC1(COC(=O)N1CCOCC1)Cn1c-2c(C2CCCCC2)c2ccc(C(=O)NS(=O)(=O)N(C)C)cc21 (centres unmarked)	1 to 500 nM	1 to 500 nM		
CCN(CC12CC1c1cc(OC)ccc1-c1c(C3CCCCC3)c3ccc(C(=O)NS(=O)(=O)N(C)C)cc3n1C2)C(C)=O (centres unmarked)	1 to 500 nM	1 to 500 nM		
COc1ccc2c(c1)C1CC1(CN1CCOCC1)Cn1c-2c(C2CCCCC2)c2ccc(C(=O)NS(=O)(=O)N(C)C)cc21 (centres unmarked)	1 to 500 nM	1 to 500 nM		
COc1ccc2c(c1)C1CC1(CC(=O)N1C3CCC1CN(C)C3)Cn1c-2c(C2CCCCC2)c2ccc(C(=O)NS(=O)(=O)N(C)C)cc21 (centres unmarked)			> 120 nM	1 to 500 nM
COc1ccc2c(c1)C1CC1(CC(=O)N1C[C@@H](C)O[C@H](C)C1)Cn1c-2c(C2CCCCC2)c2ccc(C(=O)NS(=O)(=O)N(C)C)cc21 (some centres unmarked)	1 to 500 nM	1 to 500 nM		
COc1ccc2c(c1)C1CC1(CC(=O)N1CCOCC1)Cn1c-2c(C2CCCCC2)c2ccc(C(=O)NS(=O)(=O)N(C)C)cc21 (centres unmarked)	1 to 500 nM	1 to 500 nM		
COC(=O)CC12CC1c1cc(OC)ccc1-c1c(C3CCCCC3)c3ccc(C(=O)NS(=O)(=O)N(C)C)cc3n1C2 (centres unmarked)	1 to 500 nM	> 120 nM		
COc1ccc2c(c1)C1CC1(CC(=O)O)Cn1c-2c(C2CCCCC2)c2ccc(C(=O)NS(=O)(=O)N(C)C)cc21 (centres unmarked)	1 to 500 nM	500 to 1000 nM		
COC(=O)CC12CC1c1cc(OC)ccc1-c1c(C3CCCCC3)c3ccc(C(=O)O)cc3n1C2 (centres unmarked)	1 to 500 nM	1 to 500 nM		
